Source: ChEMBL document CHEMBL3124747, “Formosusin A, a novel specific inhibitor of mammalian DNA polymerase β from the fungus Paecilomyces formosus” (Bioorg Med Chem, 2014)
pIC50, pKi: −log10 of the molar value.

Key:
DNA polymerase lambda = biological target: T1, DNA polymerase lambda (Mus musculus, UniProt Q9QXE2); test: Inhibition of mouse DNA polymerase lambda assessed as inhibition of incorporation of dTTP into poly(dA)/oligo(dT)18 after 60 mins
T1 sequence (Q9QXE2 whole entry): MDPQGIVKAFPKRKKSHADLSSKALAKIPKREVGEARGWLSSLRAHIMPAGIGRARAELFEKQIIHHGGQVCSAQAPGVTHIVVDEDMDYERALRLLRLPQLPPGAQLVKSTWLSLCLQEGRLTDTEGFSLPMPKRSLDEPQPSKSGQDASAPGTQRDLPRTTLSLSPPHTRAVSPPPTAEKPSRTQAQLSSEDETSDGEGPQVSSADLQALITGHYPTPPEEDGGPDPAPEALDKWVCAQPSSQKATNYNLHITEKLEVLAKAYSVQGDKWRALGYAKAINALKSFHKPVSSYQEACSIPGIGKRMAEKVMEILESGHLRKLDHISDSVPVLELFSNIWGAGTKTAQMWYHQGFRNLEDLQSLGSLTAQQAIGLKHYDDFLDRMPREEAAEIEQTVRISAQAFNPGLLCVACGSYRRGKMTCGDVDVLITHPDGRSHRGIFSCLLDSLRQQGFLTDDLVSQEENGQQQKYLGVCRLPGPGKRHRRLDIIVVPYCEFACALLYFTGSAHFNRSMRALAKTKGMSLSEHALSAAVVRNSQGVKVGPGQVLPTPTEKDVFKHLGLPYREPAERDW

[1] = Inhibition of cauliflower DNA polymerase alpha assessed as inhibition of incorporation of dTTP into poly(dA)/oligo(dT)18 after 60 mins; set-up: species or system Brassica oleracea var. botrytis
[2] = Inhibition of calf thymus DNA polymerase alpha assessed as inhibition of incorporation of dTTP into poly(dA)/oligo(dT)18 after 60 mins; set-up: species or system Bos taurus
DNA polymerase beta [3] = biological target: T2, DNA polymerase beta (Rattus norvegicus, UniProt P06766); test: Noncompetitive inhibition of recombinant rat DNA polymerase beta using dTTP as substrate by Lineweaver-Burk plot analysis
DNA polymerase beta [4] = biological target: T2, DNA polymerase beta; test: Competitive inhibition of recombinant rat DNA polymerase beta using poly(dA)/oligo(dT)18 as substrate by Lineweaver-Burk plot analysis
[5] = biological target: DNA polymerase beta (Rattus norvegicus) (UniProt P06766); test: Inhibition of recombinant rat DNA polymerase beta expressed in Escherichia coli JMpbeta5 assessed as inhibition of incorporation of dTTP into poly(dA)/oligo(dT)18 after 60 mins

| SMILES | pIC50 (DNA polymerase lambda) | pIC50 [1] | pIC50 [2] | pKi (DNA polymerase beta [3]) | pKi (DNA polymerase beta [4]) | inhibition [5] |
| --- | --- | --- | --- | --- | --- | --- |
| CC(/C=C/CCC(=O)N1CCCC1=O)=C\C1CCCCO1 (stereo not given) | < 3.70 | < 3.70 | < 3.70 | – | – | – |
| CCCCC(=O)/C=C(C)/C=C/CCC(=O)N1CCCC1=O | < 3.70 | < 3.70 | < 3.70 | – | – | – |
| CCCC[C@@H](O)/C=C(C)/C=C/C=C/C(=O)N1CCCC1=O [PECILOCIN] | < 3.70 | < 3.70 | < 3.70 | – | – | – |
| CCCC[C@@H](O)/C=C(C)/C=C/C=C\C(=O)N1CCCC1=O | < 3.70 | < 3.70 | < 3.70 | 4.94 | 5.26 | Dose-dependent effect |
